assay: in vitro; conditions: human, hela cells

SMILES | viability at 28.5 h, 10 µM
O=P(O)(O)/C=C(\Cl)c1ccccc1 [CBK261019] | 97.8%

same assay, conditions: human, hela cells, % viability

SMILES | viability at 28.5 h, 10 µM
COc1ccc(C(=O)COC(=O)c2cc(-c3ccc(Cl)cc3)nc3ccc(C)cc23)cc1[N+](=O)[O-] [CBK264072] | 90.6%
CC(=O)N1CCC[C@H]2NC(=O)CNC(=O)C3(C/C=C/C[C@H]21)CCN(C(=O)c1cc(C)no1)CC3 [CBK292176] | 104%
CCc1c(C)nc2ccccc2c1SC[C@H](NC(C)=O)C(=O)O [CBK153459T] | 99.2%
O=S(=O)(c1ccccc1)N1C[C@@H]2CCCCN(CC3CC3)[C@@H]2C1 [CBK285501] | 109%
Cc1cc(OCC(C)C)ccc1C(=O)C1=C(O)C(=O)N(Cc2cccnc2)C1c1cccnc1 (centres unmarked) [CBK264883] | 97.6%
O=C(O)CCC(=O)Nc1ccc2c(c1)Cc1ccccc1-2 [CBK286611] | 94.9%
CCOc1ccc(CN(C)C(=O)Cn2nc(C(=O)O)c3ccccc3c2=O)cc1 [CBK297492] | 83.8%
Cc1ccc(-c2nc3ncccc3o2)cc1NC(=O)c1cccnc1 [CBK268774] | 100%
Cc1nn(C)c(Cl)c1S(=O)(=O)Nc1cccc(-c2cnco2)c1 [CBK067107] | 78.8%
O=C(Oc1ccc2c(c1)OCO2)c1cc(S(=O)(=O)N2CCOCC2)c(Cl)cc1Cl [CBK269709] | 101%
CN(Cc1ccccc1N1CCOCC1)C(=O)Cc1cn2ccsc2n1 [CBK305830] | 109%
COc1ccc(-c2ccc(/C=N/NC(=O)c3ccncc3)o2)c([N+](=O)[O-])c1 [CBK262156] | 97.3%
O=C1N/C(=N/N=C\c2cccc([N+](=O)[O-])c2)SC1Cc1ccc(Br)cc1 (centres unmarked) [CBK263125] | 101%
CC(=O)N1CC[C@@H]2NC(=O)[C@H]3C[C@H](NC(=O)c4ccc(F)c(Cl)c4)CN3C(=O)[C@H]21 [CBK289270] | 87%
CCn1c(N2CCC(C(=O)NCC3CC3)CC2)nc2ccccc21 [CBK283983] | 104%
COc1cc(C(=O)N(Cc2ccco2)c2ccc(O)cc2)cc(OC)c1OC [CBK266315] | 102%
CCC(O)c1cc2n(n1)CCN(C(=O)c1cn(-c3ccccc3)nn1)C2 (centres unmarked) [CBK306708] | 93.7%
Cc1cc(OCC(=O)O)c(C)c2c1CC[C@@H]([C@H](C)C(=O)N1CCC(O)CC1)C2 [CBK289433] | 78.7%
COCc1nc2n(n1)CC(NC1CCCCc3ccccc31)CC2 (centres unmarked) [CBK304445] | 89.4%
Cc1ccc(S(=O)(=O)CC(=O)Nc2nc3ccc(C)cc3s2)cc1 [CBK287705] | 89.8%
COCCn1cc(C(=O)N2CCOC3CCCC32)c2ccccc21 (centres unmarked) [CBK305156] | 86.1%

SMILES | viability at 28.5 h, 10 µM
CCOC(=O)c1[nH]c2ccccc2c1NC(=O)c1ccoc1 [CBK160169] | 107%
O=C1c2ccc(OCCOc3ccc4c(c3)C(=O)N(c3ccc(O)cc3)C4=O)cc2C(=O)N1c1ccc(O)cc1 [CBK262668] | 91.3%
COc1ccccc1Nc1nc(N)nc(CSc2nccn2C)n1 [CBK266710] | 95%
CC(=O)Oc1ccc(NC(=O)C2CC(Cl)=CCC2C(=O)O)cc1C(=O)O (centres unmarked) [CBK265372] | 100%
COC(=O)C1CCCCN1S(=O)(=O)c1cccs1 (centres unmarked) [CBK051135] | 109%
Oc1ccc(Br)cc1CN1CCN(Cc2cccc3ccccc23)CC1 [CBK263662] | 87%
COc1ccc(Cc2nc(C3CCC3)n(CC3COCCO3)n2)cc1 (centres unmarked) [CBK307378] | 87.8%
COc1ccc(CCOC(=O)Nc2cn(C)nc2C(F)(F)F)cc1OC [CBK021070] | 105%
Cn1c(SCC(=O)O)nnc1-c1cc(Br)ccc1O [CBK269150] | 103%
O=C1Nc2ccc(Br)cc2/C1=C1/SC(=S)N(C(Cc2ccccc2)C(=O)O)C1=O (centres unmarked) [CBK263521] | 95.6%
COc1cc2cc(O)c(C)c(NCc3ccco3)c2cc1OC [CBK013723] | 84.4%
COc1ccc2[nH]cc(C3CCN(Cc4cc(C)no4)CC3)c2c1 [CBK303996] | 91.5%
C=C(C)Cn1c(SCCC(=O)OC)nc2sc3c(c2c1=O)CC(C)(C)OC3 [CBK026634] | 59.9%
COc1cc(C)c(S(=O)(=O)n2c(C)nc3ccccc32)cc1C [CBK265464] | 94%
C[C@@H](Nc1cncc(-c2ccc3c(c2)OCO3)n1)c1ccccc1 [CBK065954] | 108%
O=C(OCc1ccccc1)Oc1cncc(C(=O)O)c1 [CBK262053] | 91.1%
Nc1ccc(C(=O)Nc2ccc(Nc3cc(-c4ccccc4OCc4ccccc4)ncn3)cc2)cc1 [CBK091092] | 94.4%
Nc1ncc(-c2ccc(O)cc2)nc1N1CCC[C@@H]1CO [CBK063669] | 91.7%
COCCNC(=O)C1CCN(c2nc3c(-c4ccccc4F)csc3c(=O)[nH]2)CC1 [CBK215434] | 92.6%
CC(=O)NCc1cccc(-c2cc(C(=O)NCCc3cccc(OC(F)(F)F)c3)cnc2-c2ccc(Cl)cc2)c1 [CBK164414] | 84.7%
CN(C)C(=O)Cn1c(=O)n(Cc2cccs2)c2ncccc21 [CBK283902] | 81.7%

SMILES | viability at 28.5 h, 10 µM
CC[C@H]1CCCCN1C(=O)c1sc2ncccc2c1Cl [CBK092276] | 104%
Cc1nc2c(OCc3ccccc3)cccn2c1N(C)C(=O)C1CCCCC1 [CBK147884] | 96.2%
O=C(O)CCSC(CC(=O)c1ccccc1)c1ccc(Cl)cc1 (centres unmarked) [CBK077251] | 97.3%
O=C(NCc1ccccc1)[C@H]1CN2CCC1C[C@@H]2Cn1cc(-c2ccc(F)cc2)nn1 (some centres unmarked) [CBK288736] | 87%
CCC(Sc1ccc2nnc(-c3ccc(C)cc3)n2n1)C(=O)O (centres unmarked) [CBK287524] | 104%
Cn1c(=O)n(CC(=O)NCc2cccc(F)c2)c2cccnc21 [CBK283911] | 105%
O=C(c1n[nH]cc1Cl)N1CCCC(c2cc3ccccc3cn2)C1 (centres unmarked) [CBK285062] | 88%
CCOC(=O)c1cnc(SC(C)C(=O)N2CCc3ccccc32)nc1N (centres unmarked) [CBK305007] | 86.9%
Cc1ccccc1N1CCC(CNC(=O)CCn2nc(C)c(C)c2C)C1 (centres unmarked) [CBK307465] | 87.7%
N#Cc1ccccc1Cn1cc(C(=O)COc2ccccc2)c2ccccc21 [CBK268532] | 90.5%
O=C(C1CC1)N1CCCC(c2nc(-c3cccs3)no2)C1 (centres unmarked) [CBK281944] | 97.1%
O=C(O)c1cnc2ccc(F)cc2c1N1CCOCC1 [CBK287851] | 82.5%
Cc1cc(C)c(C)c(S(=O)(=O)Nc2ccc(O)c(Sc3nc[nH]n3)c2)c1C [CBK267012] | 66.6%
Cc1cc(CNC(=O)Cn2nc(C)c(C)c2C)on1 [CBK281487] | 95.1%
Cc1ccc(S(=O)(=O)NCC(c2ccccc2)N2CCN(CCC#N)CC2)cc1 (centres unmarked) [CBK262865] | 97.4%
C[C@H]1[C@@H]2[C@@H](O)C([C@H](C)C(=O)N3CCCC3)CC[C@@]2(C)CC[C@@H]1NC(=O)C1CC1 (some centres unmarked) [CBK289447] | 85%
COc1ccc(Sc2ncccc2C(F)(F)F)cc1OC [CBK093760] | 100%
CC1(C)CC(=O)C=C(C(=O)NCc2c(F)cccc2F)O1 [CBK153287] | 91.2%
COc1ccc2[nH]cc(C(C(=O)O)N3CCCCC3)c2c1 (centres unmarked) [CBK286676] | 85.3%
c1ccc(CCNc2nccnc2-c2ccncc2)nc1 [CBK037378] | 89.3%
OC(CN1CCN(C(c2ccccc2)c2ccccc2)CC1)Cn1c2ccccc2c2ccccc21 (centres unmarked) [CBK262730] | 99.6%

SMILES | viability at 28.5 h, 10 µM
NS(=O)(=O)c1ccc(S(=O)(=O)N2CCN(C/C=C/c3ccccc3)CC2)cc1 [CBK266723C] | 95.8%
CCOC(=O)CN1CCC(Oc2cncc(OCc3cccnc3)n2)C1 (centres unmarked) [CBK084462] | 99.4%
COc1cc(C)ccc1S(=O)(=O)Nc1cccc2cc[nH]c12 [CBK159511] | 81.8%
O=C1NCCc2c1[nH]c1c(Cl)cccc21 [CBK015762] | 78.2%
O=C(c1sccc1NS(=O)(=O)c1ccc(Oc2ccccc2)cc1)N1CCOCC1 [CBK050423] | 95.3%
Cc1ccc(Cn2ncc3c(N4CCCC4)ncnc32)cc1 [CBK287601] | 72.5%
COc1ccc(C2CCN(CC(=O)N3CCCC3)CC2)cc1 [CBK283561] | 101%
O=C(c1cc[nH]n1)N1CCCCC1c1ncc(-c2cccc(F)c2)[nH]1 (centres unmarked) [CBK291217] | 94.6%
COC(=O)c1cn([C@H]2CO[C@H]3[C@@H]2OC[C@@H]3NC(=O)C2CC2)nn1 [CBK289497] | 86%
O=C(Nc1nc2ccccc2[nH]1)C1c2ccccc2Oc2ccccc21 [CBK265454] | 98.9%
COCCN(CCOC)Cc1c(O)ccc2c3c(c(=O)oc12)CCC3 [CBK263733] | 75.4%
O=C(NCCc1c[nH]c2ccccc12)c1nn(-c2ncccn2)c2ccccc12 [CBK048496] | 77.7%
O=C(c1ccc(-c2cnc3[nH]c(=O)n(CCc4cccnc4)c3n2)cc1)N1CCOCC1 [CBK064334] | 99.1%
CCNC(=O)N1CC2(CCN(CCOc3ccc(OC)cc3)CC2)c2ccccc21 [CBK144600T] | 98.4%
O=C(OCC(=O)c1cccc2ccccc12)c1cc2ccccc2cc1O [CBK265526] | 102%
CCOCCn1cnc2sc(C(=O)Nc3cccc(Cl)c3)c(C)c2c1=O [CBK071854] | 91.8%
CCCC/C=C/c1nccnc1NCc1cccs1 [CBK038090] | 101%
CN(C)C(=O)CN1CCN(C(=O)c2ccccc2C(=O)c2ccc(F)cc2)CC1 [CBK297921] | 89.5%
CC(=O)Nc1ccc(C#CC2(NC(=O)C3CC3)CCCCC2)cn1 [CBK284676] | 87.4%
Cc1cccc(OCCCn2cncc2-c2cnn(C)c2)c1 [CBK281763] | 82%

same assay, conditions: human, hela cells, % viability, bulk resorufin, single well

SMILES | viability at 28.5 h, 10 µM
N#Cc1cccc(-c2ccc3c(c2)COC2(CCN(C(=O)Cc4c[nH]c5ccccc45)CC2)O3)c1 [CBK116346] | 99.1%
COc1ccccc1C1OC(=O)CC1C(=O)N1CCC(C(C)=O)(c2ccccc2)CC1 (centres unmarked) [CBK091324] | 104%

Reference: paper PMC12040169 (PLOS Biology, 2025)
